Results taken from US10597388B2, “Pyridazinone herbicides” (FMC CORPORATION, priority 2014, dated 2020).

Assays:
Test in all cases: Test D controlled growth environment herbicide test, pre- and postemergence
Format in all cases: in vivo
[1] = test system: mustard, wild (wild mustard, Sinapis arvensis)
Description: (§1) Seeds of plant species selected from bluegrass (annual bluegrass, Poa annua), blackgrass (Alopecurus myosuroides), Canada thistle (Cirsium arvense), canarygrass (Phalaris minor), chickweed (common chickweed, Stellaria media), geranium, cutleaf (cutleaf geranium, Geranium dissectum), galium (catchweed bedstraw, Galium aparine), bromegrass, downy (downy bromegrass, Bromus tectorum), field poppy (Papaver rhoeas), field violet (Viola arvensis), foxtail, green (green foxtail, Setaria viridis), deadnettle (henbit deadnettle, Lamium amplexicaule), ryegrass, Italian (Italian ryegrass, Lolium multiflorum), kochia (Kochia scoparia), lambsquarters (Chenopodium album), oilseed rape (Brassica napus), pigweed (Amaranthus retroflexus), chamomile (scentless chamomile, Matricaria inodora), Russian thistle (Salsola kali), speedwell (bird's-eye speedwell, Veronica persica), barley, spring (spring barley, Hordeum vulgare), wheat, spring (spring wheat, Triticum aestivum), buckwheat, wild (wild buckwheat, Polygonum convolvulus), mustard, wild (wild mustard, Sinapis arvensis), oat, wild (wild oat, Avena fatua), radish, wild (wild radish, Raphanus raphanistrum), windgrass (Apera spica-venti), barley, winter (winter barley, Hordeum vulgare), and wheat, winter (winter wheat, Triticum aestivum) were planted into a silt loam soil and treated preemergence with test chemicals formulated in a non-phytotoxic solvent mixture which included a surfactant.
(§2) At the same time, these species were planted in pots containing Redi-Earth® planting medium (Scotts Company, 14111 Scottslawn Road, Marysville, Ohio 43041) comprising spaghnum peat moss, vermiculite, wetting agent and starter nutrients and treated with postemergence applications of the test chemicals formulated in the same manner. Plants ranged in height from 2 to 18 cm (1- to 4-leaf stage). Treated plants and controls were maintained in a controlled growth environment for 14 to 21 d after which time all species were compared to controls and visually evaluated. Plant response ratings, summarized in Table D, are based on a scale of 0 to 100 where 0 is no effect and 100 is complete control. A dash (-) response means no test result.

[2] = test system: radish, wild (wild radish, Raphanus raphanistrum)
Description: as §1, §2

[3] = test system: barley, winter (winter barley, Hordeum vulgare)
Description: as §1, §2

[4] = test system: oat, wild (wild oat, Avena fatua)
Description: as §1, §2

[5] = test system: wheat, spring (spring wheat, Triticum aestivum)
Description: as §1, §2

[6] = test system: barley, spring (spring barley, Hordeum vulgare)
Description: as §1, §2

[7] = test system: bluegrass (annual bluegrass, Poa annua)
Description: as §1, §2

[8] = test system: blackgrass (Alopecurus myosuroides)
Description: as §1, §2

[9] = test system: speedwell (bird's-eye speedwell, Veronica persica)
Description: as §1, §2

kochia (Kochia scoparia) = test system: kochia (Kochia scoparia)
Description: as §1, §2

[10] = test system: pigweed (Amaranthus retroflexus)
Description: as §1, §2

[11] = test system: field poppy (Papaver rhoeas)
Description: as §1, §2

[12] = Postemergence, 31 g ai/ha, scale 0 to 100 (0 no effect, 100 complete control)
[13] = Postemergence, 125 g ai/ha, visual rating on scale 0 (no effect) to 100 (complete control), 14 to 21 d
[14] = Postemergence, 250 g ai/ha, scale 0 to 100 (0 no effect, 100 complete control)
[15] = Preemergence, 62 g ai/ha, scale 0 to 100 (0 no effect, 100 complete control)
[16] = Preemergence, 125 g ai/ha, scale 0 to 100 (0 no effect, 100 complete control)
[17] = Preemergence, 250 g ai/ha, scale 0 to 100, 0 no effect, 100 complete control
[18] = postemergence, 62 g ai/ha, scale 0 to 100, 0 no effect, 100 complete control

Cc1cc(C)c2sc(C)c(-c3c(O)c(C)nn(C)c3=O)c2c1 [Compound 2, 5-hydroxy-2,6-dimethyl-4-(2,5,7-trimethylbenzo[b]thien-3-yl)-3(2H)-pyridazinone]
Mustard, Wild plant response rating [1, 12]: 25
Plant response rating, Mustard, Wild [1, 13]: 40
Plant response rating, Mustard, Wild [1, 14]: 55
Plant response rating (scale of 0 to 100), Mustard, Wild ([1]; Preemergence, 31 g ai/ha): 0
Plant response rating, Mustard, Wild [1, 15]: 0
Plant response rating, Mustard, Wild [1, 16]: 5
Plant response rating, Mustard, Wild [1, 17]: 40
Plant response rating, Mustard, Wild [1, 18]: 35
Radish, Wild plant response rating [2, 12]: 25
Plant response rating, Radish, Wild [2, 13]: 65
Plant response rating, Radish, Wild [2, 14]: 60
Plant response rating (scale of 0 to 100), Radish, Wild ([2]; Preemergence, 31 g ai/ha): 0
Plant response rating, Radish, Wild [2, 15]: 5
Plant response rating, Radish, Wild [2, 16]: 15
Plant response rating, Radish, Wild [2, 17]: 100
Plant response rating, Radish, Wild [2, 18]: 55
Plant response rating, Barley, Winter [3, 12]: 10
Plant response rating, Barley, Winter [3, 13]: 15
Plant response rating, Barley, Winter [3, 14]: 10
Plant response rating (scale of 0 to 100), Barley, Winter ([3]; Preemergence, 31 g ai/ha): 0
Plant response rating, Barley, Winter [3, 15]: 0
Plant response rating, Barley, Winter [3, 16]: 0
Barley, Winter plant response rating [3, 17]: 0
Plant response rating, Barley, Winter [3, 18]: 10
Oat, Wild plant response rating [4, 12]: 55
Plant response rating, Oat, Wild [4, 13]: 90
Plant response rating, Oat, Wild [4, 14]: 100
Plant response rating (scale of 0 to 100), Oat, Wild ([4]; Preemergence, 31 g ai/ha): 80
Plant response rating, Oat, Wild [4, 15]: 90
Plant response rating, Oat, Wild [4, 16]: 95
Plant response rating, Oat, Wild [4, 17]: 100
Plant response rating, Oat, Wild [4, 18]: 80
Wheat, Spring plant response rating [5, 12]: 0
Plant response rating, Wheat, Spring [5, 13]: 10
Plant response rating, Wheat, Spring [5, 14]: 25
Plant response rating (scale of 0 to 100), Wheat, Spring ([5]; Preemergence, 31 g ai/ha): 0
Plant response rating, Wheat, Spring [5, 15]: 0
Plant response rating, Wheat, Spring [5, 16]: 5
Plant response rating, Wheat, Spring [5, 17]: 10
Plant response rating, Wheat, Spring [5, 18]: 0
Plant response rating, Barley, Spring [6, 12]: 0
Plant response rating, Barley, Spring [6, 13]: 5
Plant response rating, Barley, Spring [6, 14]: 5
Plant response rating (scale of 0 to 100), Barley, Spring ([6]; Preemergence, 31 g ai/ha): 0
Plant response rating, Barley, Spring [6, 15]: 0
Plant response rating, Barley, Spring [6, 16]: 0
Barley, Spring plant response rating [6, 17]: 0
Plant response rating, Barley, Spring [6, 18]: 0
Bluegrass plant response rating [7, 12]: 5
Plant response rating, Bluegrass [7, 13]: 5
Plant response rating, Bluegrass [7, 14]: 15
Plant response rating (scale of 0 to 100), Bluegrass ([7]; Preemergence, 31 g ai/ha): 0
Plant response rating, Bluegrass [7, 15]: 15
Plant response rating, Bluegrass [7, 16]: 30
Bluegrass plant response rating [7, 17]: 50
Plant response rating, Bluegrass [7, 18]: 10
Blackgrass plant response rating [8, 12]: 65
Plant response rating, Blackgrass [8, 13]: 80
Plant response rating, Blackgrass [8, 14]: 90
Plant response rating (scale of 0 to 100), Blackgrass ([8]; Preemergence, 31 g ai/ha): 65
Plant response rating, Blackgrass [8, 15]: 75
Plant response rating, Blackgrass [8, 16]: 85
Blackgrass plant response rating [8, 17]: 90
Plant response rating, Blackgrass [8, 18]: 70
Speedwell plant response rating [9, 12]: 50
Plant response rating, Speedwell [9, 13]: 80
Plant response rating, Speedwell [9, 14]: 90
Plant response rating (scale of 0 to 100), Speedwell ([9]; Preemergence, 31 g ai/ha): 55
Plant response rating, Speedwell [9, 16]: 90
Plant response rating, Speedwell [9, 17]: 100
Plant response rating, Speedwell [9, 18]: 65
Kochia plant response rating (kochia (Kochia scoparia); [12]): 50
Plant response rating, Kochia (kochia (Kochia scoparia); [13]): 65
Plant response rating, Kochia (kochia (Kochia scoparia); [14]): 70
Plant response rating (scale of 0 to 100), Kochia (kochia (Kochia scoparia); Preemergence, 31 g ai/ha): 0
Plant response rating, Kochia (kochia (Kochia scoparia); [15]): 0
Plant response rating, Kochia (kochia (Kochia scoparia); [16]): 0
Plant response rating, Kochia (kochia (Kochia scoparia); [17]): 20
Plant response rating, Kochia (kochia (Kochia scoparia); [18]): 60
Pigweed plant response rating [10, 12]: 70
Plant response rating, Pigweed [10, 13]: 85
Plant response rating, Pigweed [10, 14]: 95
Plant response rating (scale of 0 to 100), Pigweed ([10]; Preemergence, 31 g ai/ha): 25
Plant response rating, Pigweed [10, 15]: 50
Plant response rating, Pigweed [10, 16]: 65
Plant response rating, Pigweed [10, 17]: 100
Plant response rating, Pigweed [10, 18]: 80
Field Poppy plant response rating [11, 12]: 75
Plant response rating, Field Poppy [11, 13]: 100
Plant response rating, Field Poppy [11, 14]: 100
Plant response rating (scale of 0 to 100), Field Poppy ([11]; Preemergence, 31 g ai/ha): 95
Plant response rating, Field Poppy [11, 15]: 95
Plant response rating, Field Poppy [11, 16]: 95
Plant response rating, Field Poppy [11, 17]: 100
Plant response rating, Field Poppy [11, 18]: 95
